In patent US8647824B2, “Microbial reductive dehalogenation of vinyl chloride” (The Board of Trustees of the Leland Stanford Junior …, priority 2004, dated 2014):
Where “and” joins values, the source holds several entries; their conditions need not be identical. Identical values can stand only once.

Experiments:
Pinellas culture = assay: Batch dechlorination and growth kinetics, Pinellas culture; assay type: cell-based, Dehalococcoides-like microorganisms; conditions: for Maximum Growth Rate: 95% confidence interval
Source text: Stock cultures. The Victoria mixed culture, containing strain VS, was maintained in a closed continuously stirred tank reactor (CSTR) as previously described. A VC enrichment of this culture, maintained over 5 years, was also used in these investigations. Liquid cultures of the three other cultures evaluated (Pinellas, KB-1/VC, and Dehalococcoides ethenogenes strain 195) were kept in anaerobic bottles, stored in an anaerobic chamber (10% H2, 10% CO2, 80% N2). The bottles were amended with TCE (1-3 μL neat liquid), VC (250 μL gas), and PCE (1-3 μL neat liquid) being added to each, respectively, approximately every two weeks.
Batch studies. For the experimental portion of this research, two studies were undertaken, one a comparative VC growth study, and the other a comparative growth and substrate utilization study with different chlorinated ethenes. These studies compared the dechlorination abilities of Dehalococcoides ethenogenes strain 195 and the Dehalococcoides-like microorganisms in the three mixed cultures (Victoria, KB-1/VC, and Pinellas).
For the first study, a VC enriched inoculum was first developed for each of the three mixed cultures. Here, bottles (120 mL) were filled with 60 mL of anaerobic media in an anaerobic chamber as previously described, and inoculated with 200 μL of each stock culture. Gaseous VC (99.5%) was added with a gas tight syringe (200 μL). The cultures were then moved to a shaker (60-80 rpm) in an anaerobic chamber (20±2° C.). Immediately after 5 μmol of ethene was formed in a bottle, 200 μL of the culture was transferred to fresh media (60 mL), in triplicate, and VC was again added (200 μL). The inoculum for the growth study was that formed after exactly 4 μmol of ethene was produced following this second transfer. To compare growth rates on VC, a range in concentration of each inocula (0.1, 0.3, 1, 3, 9 mL) was transferred to fresh media (as above) to result in a liquid volume of 60 mL, and gaseous VC (200 μL) was added to each. […] Hydrogen served as the electron donor and was non-limiting (>3%) in all studies. Headspace samples were periodically removed by syringe (250 μL) for chlorinated ethene analyses.
The purpose of the second study was to compare dechlorination rates of PCE, TCE and DCE between the three different cultures that grew on VC (Victoria, KB-1/VC and Pinellas). The development of inocula here was performed with VC, just as in the first study. For the growth and substrate utilization experiments, triplicate bottles were set up for each culture containing 1 mL of inoculum and either neat PCE (0.4 μL), neat TCE (0.3 μL), saturated DCE solution (34 μL) or gaseous VC (200 μL). To further investigate TCE removal, bottles (120 mL) were filled with 20 mL of a highly enriched culture of strain VS made from the Victoria culture. Duplicate bottles were supplied with gaseous VC (50 μL on day 0, then 150 μL on day 3) or TCE (0.4 μL neat liquid). Dechlorination was followed until all VC or TCE was converted to ethene (day 12). The change in strain VS concentration during VC and TCE utilization was then determined both by competitive PCR and by an activity procedure evaluated previously for strain VS. In the activity procedure a non-growth limiting concentration of VC (150 μL) along with excess hydrogen is added to a culture and the initial dechlorination rate is measured (over <1 day). A good estimate of strain VS concentration can then be obtained using the previously determined strain VS maximum VC utilization rate (7.8×10^−10 μmol Cl^− (cell·d)^−1). The increase in strain VS concentration during TCE or VC utilization was determined with these two procedures on the culture before and after TCE and VC utilization.
Comparative dechlorination and growth kinetics. With mixed cultures, the concentration of organisms carrying out a particular reaction is generally unknown and difficult to determine. […]

[1] = test system: VC reductive dehalogenase of Dehalococcoides sp. strain VS; assay: VC-reduction enzyme assay with Ti(III)-reduced methyl viologen as electron donor, gas chromatography; assay type: biochemical
Experimental: Enzyme assays. Cells were harvested by centrifugation (20,000 g, 20 min, 4° C.) under strictly anoxic conditions using the anoxic chamber, washed and resuspended in degassed MOPS buffer (20 mM, pH 7.2) supplemented with 2 mM DTE and 0.2 mM titanium(III)NTA (buffer A). The buffer was incubated overnight in the anoxic chamber before addition of reducing agents. Cell-free extracts were obtained by anoxic disruption of cells by French Press treatment (138 MPa; two passages), followed by two centrifugation steps (30,000×g, 15 min, 4° C.).
Assays of VC-reduction were conducted as described previously in 2-ml glass vials under an N2/H2 atmosphere with Ti(III)-reduced methyl viologen as artificial electron donor (Rosner et al.) The protein concentration in the assay varied between 10 and 100 μg/ml. The test was started by addition of gaseous VC to the assay mix (total aqueous volume 0.3 ml), and change in VC and ethene concentrations were followed with time by gas chromatography. Experiments testing for reduction of liquid chlorinated ethenes (PCE, TCE, DCE-isomers) were carried out essentially as described above with the appropriate substitution of the chlorinated ethene. The chlorinated compounds were added from aqueous stock solutions.
Oxygen sensitivity of VC-reducing activity in cell-free extract was investigated in buffer amended with resazurin as redox indicator. Prior to addition of VC, the assay was exposed to air until the resazurin underwent a color-change from colorless to pink. Subsequently, the assay was rendered anoxic again by exchanging the gas phase inside the anoxic chamber followed by addition of Ti(III)NTA (5 mM final concentration). All enzyme assays were carried out at ambient temperature, and given activities are means of at least three independent measurements.
Partial purification of VC reductase. Protein purification was performed at 4° C. in the anoxic chamber. The membrane fraction was obtained by centrifugation of cell-free extract at 100,000×g for 90 min at 4° C. The pellet was resuspended in 1 ml buffer A supplemented with 2 mM 3-[(3-cholamidopropyl)dimethylammonio]-1-propanesulfonic acid (CHAPS), and incubated for 1 h on ice. After subsequent centrifugation (100,000×g, 90 min, 4° C.) the solubilized membrane fraction was diluted with an equal volume of buffer B (50 mM 1,3-Bis[tris(hydroxymethyl)methylamino]propane (Bis-Tris Propane), pH 9.6, 2 mM dithiothreitol, 0.2 mM titanium(III)NTA, 20 mM CHAPS), and loaded on a 1-ml HighTrap Q column (Amersham Pharmacia) equilibrated with buffer C (same as buffer B but with 2 mM CHAPS). VC reductive dehalogenase activity was eluted as a single peak (at 550 to 580 mM NaCl) with 10 ml buffer C followed by a 40-ml linear gradient from 0-700 mM NaCl in buffer C at a flow of 1 ml/min. Fractions containing the highest activity were pooled and mixed with an equal volume of buffer A containing 20 mM CHAPS, and applied to a Superose-6 column equilibrated with the same buffer. Enzyme activity was eluted with buffer A at a flow rate of 0.2 ml/min. The protein concentration of the samples was determined according to Bradford with bovine serum albumin as a standard.

SMILES | Half velocity coefficient KT (Pinellas culture) [µM] | Maximum Growth Rate (Pinellas culture) | reduction rate relative to reduction rate for cDCE to VC ([1]; reduction of TCE to cDCE) [%] | effect on the reduction rate of VC ([1]; saturating concentrations of PCE or TCE present) | time to form 5 μmol of ethene (Pinellas culture; 200 μL VC) [days] | rate of reduction by active protein fractions ([1]; fractions after gel filtration, reduced methyl viologen as electron donor)
ClC=C(Cl)Cl [TCE, trichloroethene] | 10.5 ± 0.7 | 0.49 day⁻¹ and 0.49 ± 0.03 day⁻¹ | 5 | not affected |  | 
C=CCl [VC, vinyl chloride] |  | 0.28 day⁻¹ and 0.28 ± 0.01 day⁻¹ |  |  | 21 | 350 nmol min^−1 [mg protein]^−1
